# Data from US20240327393A1 (SIRONAX LTD., priority 2021, published 2024).
# Test system: HT-1080 (ATCC, CCL-121) cells
# Assay: HT-1080 cell viability assay with ferroptosis inducer RSL3 (Cell Titer-Glo)
# Assay type: cell-based
# Details: Homo sapiens; HT-1080 cells treated with RSL3; 3-fold, 10-point dilution, 1.1 μM highest concentration; Table 2; read-out: EC50 (nM), ferroptosis inhibitory activity
# Outline: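 HT-1080 cells (6000 per well) were cultured overnight at 37 °C, then co-treated with RSL3 and compound in a 3-fold, 10-point series topping at 1.1 μM. Viability was read by CellTiter-Glo luminescence and normalized to untreated controls. EC50 came from a sigmoidal non-linear regression fit.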
row,Compound,EC50
1,"CC1CCC(C)N1c1ccc(Nc2ccc3c(c2)oc(=O)n3C)cc1 (stereo not drawn) [Compound 325, 6-((4-(2,5-dimethylpyrrolidin-1-yl)phenyl)amino)-3-methylbenzo[d]oxazol-2(3H)-one]",0.1 to 100 nM
2,"Cn1c(=O)n(C)c2cc(Nc3ccc(CN4CCCC4)cc3)ccc21 [Compound 295, 1,3-dimethyl-5-((4-(pyrrolidin-1-ylmethyl)phenyl)amino)-1,3-dihydro-2H-benzo[d]imidazol-2-one]",1000 to 10000 nM
3,CC1CN(c2ccc(Nc3ccc4c(c3)oc(=O)n4CCN(C)C)cc2)CC(C)O1 (stereo not drawn) [Compound 424],0.1 to 100 nM
4,"COc1ccc(Nc2ccc3c(c2)n(C)c(=O)n3C)cn1 [Compound 320, 5-((6-methoxypyridin-3-yl)amino)-1,3-dimethyl-1,3-dihydro-2H-benzo[d] imidazol-2-one]",0.1 to 100 nM
5,"CC(C)(C)c1ccc(Nc2ccc3oc(=O)ccc3c2)cc1 [Compound 120, 6-((4-(tert-butyl)phenyl)amino)-2H-chromen-2-one]",0.1 to 100 nM
6,"CN1Cc2cc(Nc3ccc(N4CCCCC4)c(Cl)c3)ccc2C1=O [Compound 225, 5-((3-chloro-4-(piperidin-1-yl)phenyl)amino)-2-methylisoindolin-1-one]",0.1 to 100 nM
7,"COc1cc(Nc2ccc3c(c2)OCC(=O)N3C)ccc1N1CC(C)OC(C)C1 (stereo not drawn) [Compound 70, 7-((4-(2,6-dimethylmorpholino)-3-methoxyphenyl)amino)-4-methyl-2H-benzo[b][1,4]oxazin-3(4H)-one]",0.1 to 100 nM
8,"CN1C(=O)COc2cc(Nc3ccc4c(c3)CC(C)(C)C4)ccc21 [Compound 49, 7-((2,2-dimethyl-2,3-dihydro-1H-inden-5-yl)amino)-4-methyl-2H-benzo[b][1,4] oxazin-3(4H)-one]",0.1 to 100 nM
9,"CC1CCN(c2ccc(Nc3ccc4c(c3)n(C)c(=O)n4C)cn2)CC1 [Compound 276, 1,3-dimethyl-5-((6-(4-methylpiperidin-1-yl)pyridin-3-yl)amino)-1,3-dihydro-2H-benzo[d]imidazol-2-one]",0.1 to 100 nM
10,"Cc1cc(C)cc(Nc2ccc3c(c2)CN(C)C3=O)c1 [Compound 226, 5-((3,5-dimethylphenyl)amino)-2-methylisoindolin-1-one]",0.1 to 100 nM
11,"CC1CN(c2ccc3cc(Nc4ccc5c(c4)OCC(=O)N5C)ccc3n2)CC(C)O1 (stereo not drawn) [Compound 65, 7-((2-(2,6-dimethylmorpholino)quinolin-6-yl)amino)-4-methyl-2H-benzo[b][1,4]oxazin-3(4H)-one]",0.1 to 100 nM
12,"Cc1cc(N2CC(C)OC(C)C2)ccc1Nc1ccc2c(c1)CNC2 (stereo not drawn) [Compound 440, N-(4-(2,6-dimethylmorpholino)-2-methylphenyl)isoindolin-5-amine]",0.1 to 100 nM
13,"CCCCCN(CCCCOC)c1ccc(Nc2ccc3c(c2)OCC(=O)N3C)cc1 [Compound 4, 7-((4-((4-methoxybutyl)(pentyl)amino)phenyl)amino)-4-methyl-2H-benzo[b][1,4]oxazin-3(4H)-one]",0.1 to 100 nM

# Results, then the molecule that gave them:
row,EC50,Compound
1,0.1 to 100 nM,O=C1COc2cc(Nc3ccc(N4CCC(C(F)(F)F)CC4)cc3)ccc2N1CCO [Compound 83]
2,0.1 to 100 nM,"CCC1Oc2cc(Nc3ccc(N4CCC(C(F)(F)F)CC4)cc3)ccc2N(C)C1=O (stereo not drawn) [Compound 68, 2-ethyl-4-methyl-7-((4-(4-(trifluoromethyl)piperidin-1-yl)phenyl)amino)-2H-benzo[b][1,4]oxazin-3(4H)-one]"
3,0.1 to 100 nM,"CC1CCN(c2ccc(Nc3ccc4c(c3)N(C)CC(=O)N4C)cc2)CC1 [Compound 102, 1,4-dimethyl-6-((4-(4-methylpiperidin-1-yl)phenyl)amino)-3,4-dihydroquinoxalin-2(1H)-one]"
4,0.1 to 100 nM,"CCN(CC)c1nc2ccc(Nc3ccc(N4CCC(C(F)(F)F)CC4)cc3)cc2n1C [Compound 402, N2,N2-diethyl-1-methyl-N6-(4-(4-(trifluoromethyl)piperidin-1-yl)phenyl)-1H-benzo[d]imidazole-2,6-diamine]"
5,100 to 1000 nM,"Cc1cc(Nc2ccc3c(c2)OCC(=O)N3)ccc1N1CCC(C(F)(F)F)CC1 [Compound 101, 7-((3-methyl-4-(4-(trifluoromethyl)piperidin-1-yl)phenyl)amino)-2H-benzo[b][1,4]oxazin-3(4H)-one]"
6,0.1 to 100 nM,"CC1CCN(c2ccc(Nc3ccc4c(c3)ncn4C)cc2)CC1 [Compound 285, 1-methyl-N-(4-(4-methylpiperidin-1-yl)phenyl)-1H-benzo[d]imidazol-5-amine]"
7,0.1 to 100 nM,"Cn1cnc2cc(Nc3ccc(N4CCC(C(F)(F)F)CC4)cc3)ccc21 [Compound 336, 1-methyl-N-(4-(4-(trifluoromethyl)piperidin-1-yl)phenyl)-1H-benzo[d]imidazol-5-amine]"
8,0.1 to 100 nM,"CN1C(=O)COc2cc(Nc3ccc(N4CCC(C(F)(F)F)CC4)c(F)c3)ccc21 [Compound 77, 7-((3-fluoro-4-(4-(trifluoromethyl)piperidin-1-yl)phenyl)amino)-4-methyl-2H-benzo[b][1,4]oxazin-3(4H)-one]"
9,0.1 to 100 nM,"CN1C(=O)CCc2cc(Nc3ccc(N4CCC(C(F)(F)F)CC4)cc3)ccc21 [Compound 127, 1-methyl-6-((4-(4-(trifluoromethyl)piperidin-1-yl)phenyl)amino)-3,4-dihydroquinolin-2(1H)-one]"
10,0.1 to 100 nM,"CN1C(=O)c2ccc(Nc3ccc(N4CCC(C(F)(F)F)CC4)cc3)cc2C1=O [Compound 201, 2-methyl-5-((4-(4-(trifluoromethyl)piperidin-1-yl)phenyl)amino) isoindoline-1,3-dione]"
11,0.1 to 100 nM,"Cn1c(=O)n(C)c2cc(Nc3ccc(N4CCC(CF)CC4)cc3)ccc21 [Compound 385, 5-((4-(4-(fluoromethyl)piperidin-1-yl)phenyl)amino)-1,3-dimethyl-1,3-dihydro-2H-benzo[d]imidazol-2-one]"
12,0.1 to 100 nM,"Cc1cc(N2CCC(C(F)(F)F)CC2)ccc1Nc1ccc2c(c1)OCC(=O)N2C [Compound 78, 4-methyl-7-((2-methyl-4-(4-(trifluoromethyl)piperidin-1-yl)phenyl)amino)-2H-benzo[b][1,4]oxazin-3(4H)-one]"
13,0.1 to 100 nM,"CNCCCn1ncc2cc(Nc3ccc(N4CCC(C(F)(F)F)CC4)cc3)ccc21 [Compound 414, 1-(3-(methylamino)propyl)-N-(4-(4-(trifluoromethyl)piperidin-1-yl)phenyl)-1H-indazol-5-amine]"

# Same assay, conditions: Homo sapiens; HT-1080 cells treated with RSL3; 3-fold, 10-point dilution, 1.1 μM highest concentration; Table 3; read-out: EC50 (nM), ferroptosis inhibitory activity
row,Compound,EC50
1,"Cc1cc(N2CCC(C(F)(F)F)CC2)ccc1Nc1ccc2c(c1)COCC(=O)N2 [Compound 650, 7-((2-methyl-4-(4-(trifluoromethyl)piperidin-1-yl)phenyl)amino)-1,5-dihydrobenzo[e][1,4]oxazepin-2(3H)-one]",0.1 to 100 nM
2,"Cc1cc(N2CC(F)C2)ccc1Nc1ccc2c(c1)OCCC(=O)N2 [Compound 610, 8-((4-(3-fluoroazetidin-1-yl)-2-methylphenyl)amino)-2,3-dihydrobenzo[b][1,4]oxazepin-4(5H)-one]",0.1 to 100 nM
3,"Cc1cc(N2CCC(F)(F)C2)ccc1Nc1ccc2c(c1)OCCC(=O)N2 [Compound 622, 8-((4-(3,3-difluoropyrrolidin-1-yl)-2-methylphenyl)amino)-2,3-dihydrobenzo[b][1,4]oxazepin-4(5H)-one]",0.1 to 100 nM
4,"Cc1cc(N2C[C@@H](C)O[C@@H](C)C2)ccc1Nc1ccc2cnn(C)c2c1 [Compound 638, N-(4-((2S,6R)-2,6-dimethylmorpholino)-2-methylphenyl)-1-methyl-1H-indazol-6-amine]",0.1 to 100 nM
5,"Cc1cc(N2CC(C)OC(C)C2)ccc1Nc1ccc2c(c1)nc(N)n2C (stereo not drawn) [Compound 536, 5-N-[4-(2,6-dimethylmorpholin-4-yl)-2-methylphenyl]-1-methyl-1,3-benzodiazole-2,5-diamine]",0.1 to 100 nM
6,"Cc1cc(N2CC(C)N(CC(F)(F)F)C(C)C2)ccc1Nc1ccc2c(c1)OCC(=O)N2 (stereo not drawn) [Compound 519, 7-((4-(3,5-dimethyl-4-(2,2,2-trifluoroethyl)piperazin-1-yl)-2-methylphenyl)amino)-2H-benzo[b][1,4]oxazin-3(4H)-one]",0.1 to 100 nM
7,"Cc1cc(N2CC(F)(F)C2)ccc1Nc1ccc2c(c1)OCCC(=O)N2 [Compound 626, 8-((4-(3,3-difluoroazetidin-1-yl)-2-methylphenyl)amino)-2,3-dihydrobenzo[b][1,4]oxazepin-4(5H)-one]",0.1 to 100 nM
8,"Cc1cc(N2C[C@@H](C)O[C@@H](C)C2)ccc1Nc1ccc2c(c1)CNC(=O)N2 [Compound 494, 6-((4-((2R,6S)-2,6-dimethylmorpholino)-2-methylphenyl)amino)-3,4-dihydroquinazolin-2(1H)-one]",0.1 to 100 nM
9,"CC1CCN(c2ccc(Nc3ccc4c(c3)OCC(=O)N4)cc2)CC1 [Compound 507, 7-((4-(4-methylpiperidin-1-yl)phenyl)amino)-2H-benzo[b][1,4]oxazin-3(4H)-one]",0.1 to 100 nM
10,"Cc1cc(N2CCC(O)(C(F)(F)F)CC2)ccc1Nc1ccc2c(c1)OCC(=O)N2 [Compound 509, 7-((4-(4-hydroxy-4-(trifluoromethyl)piperidin-1-yl)-2-methylphenyl)amino)-2H-benzo[b][1,4]oxazin-3(4H)-one]",0.1 to 100 nM
11,"Cc1c(Nc2ccc3c(c2)OCC(=O)N3C)ccc(N2CCC(C(F)(F)F)CC2)c1C#N [Compound 492, 2-methyl-3-((4-methyl-3-oxo-3,4-dihydro-2H-benzo[b][1,4]oxazin-7-yl)amino)-6-(4-(trifluoromethyl)piperidin-1-yl)benzonitrile]",0.1 to 100 nM

# Second part, the molecule after the results:
row,EC50,Compound
1,0.1 to 100 nM,"CN1C(=O)COc2cc(Nc3ccc(N4CCC(C(F)(F)F)CC4)cc3)c(O)cc21 [Compound 495, 6-hydroxy-4-methyl-7-({4-[4-(trifluoromethyl)piperidin-1-yl]phenyl}amino)-2H-1,4-benzoxazin-3-one]"
2,0.1 to 100 nM,"O=C1COc2cc(Nc3ccc(N4CCC(C(F)(F)F)CC4)cc3F)ccc2N1 [Compound 466, 7-((2-fluoro-4-(4-(trifluoromethyl)piperidin-1-yl)phenyl)amino)-2H-benzo[b][1,4]oxazin-3(4H)-one]"
